# Read-outs that look alike come from different tables or passages of the source. Marks after values point to notes of the source that are not given here.
# Key:
# [1] = test system: formalin-induced hind paw licking; format: in vivo, mouse; settings: for Hind paw licking time (Seconds) (Mean ± SEM): IP, mean (X); for analgesic effect: mouse, in vivo
# [2] = test system: developing type II collagen arthritis; settings: arsenic trioxide study
# [3] = test system: lipopolysaccharide-induced septic shock; format: in vivo, mouse; settings: PO 3 mg/kg, mortality over 3 days after LPS 30 mg/kg IP
molecule,measurement,setting,value
arsenic trioxide (As2O3),Hind paw licking time (Seconds) (Mean ± SEM),"[1]; 1 mg/kg, 0-5 minutes after formalin",74.6 s
same,Hind paw licking time (Seconds) (Mean ± SEM),"[1]; 1 mg/kg, 5-10 minutes after formalin",2.6* Seconds
same,Hind paw licking time (Seconds) (Mean ± SEM),"[1]; 1 mg/kg, 10-15 minutes after formalin",15.6* Seconds
same,Hind paw licking time (Seconds) (Mean ± SEM),"[1]; 1 mg/kg, 15-20 minutes after formalin",40.0 s
same,Hind paw licking time (Seconds) (Mean ± SEM),"[1]; 1 mg/kg, 20-25 minutes after formalin",57.1 s
same,Hind paw licking time (Seconds) (Mean ± SEM),"[1]; 1 mg/kg, 25-30 minutes after formalin",53.5 s
same,Hind paw licking time (Seconds) (Mean ± SEM),"[1]; 1 mg/kg, 30-35 minutes after formalin",30.0 s
same,Hind paw licking time (Seconds) (Mean ± SEM),"[1]; 10 mg/kg, 0-5 minutes after formalin",9.0* Seconds
same,Hind paw licking time (Seconds) (Mean ± SEM),"[1]; 10 mg/kg, 5-10 minutes after formalin",0.3* Seconds
same,Hind paw licking time (Seconds) (Mean ± SEM),"[1]; 10 mg/kg, 10-15 minutes after formalin",0.0* Seconds
same,Hind paw licking time (Seconds) (Mean ± SEM),"[1]; 10 mg/kg, 15-20 minutes after formalin",0.0* Seconds
same,Hind paw licking time (Seconds) (Mean ± SEM),"[1]; 10 mg/kg, 20-25 minutes after formalin",0.0* Seconds
same,Hind paw licking time (Seconds) (Mean ± SEM),"[1]; 10 mg/kg, 25-30 minutes after formalin",0.0* Seconds
same,Hind paw licking time (Seconds) (Mean ± SEM),"[1]; 10 mg/kg, 30-35 minutes after formalin",0.0 s
same,inhibition of the licking response to formalin challenge,"[1]; intraperitoneal, 10 mg/kg, intervals 0-5, 5-10, 10-15, 15-20, 20-25 and 25-30 minutes",significant inhibition
same,response (inhibition of licking) to formalin challenge,"[1]; intraperitoneal, lower dose 1 mg/kg",limited to the intervals of 5-10 and 10-15 minutes after challenge
same,Relative thymus weights,[2]; 10 mg/kg,reduced below arthritic controls
same,"Relative liver weights, increase above arthritic controls",[2]; IP 1 mg/kg,6%
same,"Relative liver weights, increase above arthritic controls",[2]; IP 10 mg/kg,10%
same,"Relative spleen weights, reduction as compared to disease control rats",[2]; IP 10 mg/kg,21%
same,inhibition of decrease in ankle diameter,"[2]; IP 10 mg/kg, days 10-17",Significant inhibition
same,Inhibition of ankle diameter AUC,"[2]; IP, QD, 10 mg/kg",80%
same,Inhibition of final paw weight,"[2]; IP, QD, 10 mg/kg",71%
same,inhibition of body weight loss,"[2]; IP, QD, 10 mg/kg",55%
"CN1CC[C@]23c4c5ccc(O)c4O[C@H]2[C@@H](O)C=C[C@H]3[C@H]1C5 [Morphine, morphine, reference compound]",analgesic effect,[1],associated with analgesic effect
same,analgesic effect,"[1]; po, 30 mg/kg",significant analgesic effect
"CC(=O)OCC(=O)[C@@]1(O)[C@H](C)C[C@H]2[C@@H]3CCC4=CC(=O)C=C[C@]4(C)[C@@]3(F)[C@@H](O)C[C@@]21C [Dexamehasone 21-acetate, reference compound]",% Protection,[3],(75) %
